Reference: the supplement of paper PMC10307832

Assays:
Assay in all cases: relative viability (nuclei count vs DMSO), 5 days (fraction); higher = more cells survive
[1] = compound: CC[C@H](CO)Nc1nc(NCc2ccccc2)c2ncn(C(C)C)c2n1 [Seliciclib] + N=C(N)NC(=N)NCCc1ccccc1 [Phenformin] (partner 250 µM)
Outline: (§1)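 Each reported value is a median over duplicate plates. It expresses relative viability: treated-well nuclei count divided by vehicle-well nuclei count. Lung cancer cell lines in 1536-well plates were dosed by pin tool a day after seeding, alone with one drug or with a fixed anchor-drug dose plus five library-drug doses (not always all listed) in √10 steps, and nuclei were counted after 5 days.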

[2] = compound: CC[C@H](CO)Nc1nc(NCc2ccccc2)c2ncn(C(C)C)c2n1 [Seliciclib] + CS(=O)(=O)N1CCN(Cc2cc3nc(-c4cccc5[nH]ncc45)nc(N4CCOCC4)c3s2)CC1 [Pictilisib] (partner 1 µM)
Outline: as §1

[3] = compound: CC[C@H](CO)Nc1nc(NCc2ccccc2)c2ncn(C(C)C)c2n1 [Seliciclib] + CC(=O)c1c(C)c2cnc(Nc3ccc(N4CCNCC4)cn3)nc2n(C2CCCC2)c1=O [Palbociclib] (partner 0.5 µM)
Outline: as §1

[4] = compound: CC[C@H](CO)Nc1nc(NCc2ccccc2)c2ncn(C(C)C)c2n1 [Seliciclib] + Nc1ncn([C@H]2C[C@H](O)[C@@H](CO)O2)c(=O)n1 [Decitabine] (partner 2 µM)
Outline: as §1

| Cell Line | relative viability ([1]; first compound 0.08 µM) | relative viability ([1]; first compound 0.253 µM) | relative viability ([1]; first compound 0.8 µM) | relative viability ([1]; first compound 2.53 µM) | relative viability ([1]; first compound 8 µM) | relative viability ([2]; first compound 0.08 µM) | relative viability ([2]; first compound 0.253 µM) | relative viability ([2]; first compound 0.8 µM) | relative viability ([2]; first compound 2.53 µM) | relative viability ([2]; first compound 8 µM) | relative viability ([3]; first compound 0.08 µM) | relative viability ([3]; first compound 0.253 µM) | relative viability ([3]; first compound 0.8 µM) | relative viability ([3]; first compound 2.53 µM) | relative viability ([3]; first compound 8 µM) | relative viability ([4]; first compound 0.08 µM) | relative viability ([4]; first compound 0.253 µM) | relative viability ([4]; first compound 0.8 µM) | relative viability ([4]; first compound 2.53 µM) | relative viability ([4]; first compound 8 µM) |
| --- | --- | --- | --- | --- | --- | --- | --- | --- | --- | --- | --- | --- | --- | --- | --- | --- | --- | --- | --- | --- |
| LC-2-ad | 0.552 | 0.579 | 0.593 | 0.368 | 0.514 | 0.487 | 0.572 | 0.34 | 0.205 | 0.0269 | 0.49 | 0.524 | 0.494 | 0.466 | 0.371 | 0.752 | 0.95 | 0.717 | 0.812 | 0.721 |
| COR-L23 | 0.435 | 0.534 | 0.465 | 0.378 | 0.382 | 0.63 | 0.782 | 0.86 | 0.584 | 0.49 | 0.298 | 0.315 | 0.262 | 0.19 | 0.165 | 0.395 | 0.34 | 0.478 | 0.419 | 0.403 |
| NCI-H1650 | 0.436 | 0.525 | 0.462 | 0.424 | 0.264 | 0.579 | 0.631 | 0.526 | 0.466 | 0.354 | 0.369 | 0.317 | 0.332 | 0.353 | 0.216 | 0.439 | 0.278 | 0.437 | 0.403 | 0.52 |
| RERF-LC-KJ | 0.44 | 0.432 | 0.401 | 0.44 | 0.345 | 0.431 | 0.511 | 0.633 | 0.59 | 0.443 | 1 | 0.925 | 1.03 | 1.07 | 0.908 | 0.711 | 0.671 | 0.737 | 0.637 | 0.65 |
| SK-MES-1 | 0.686 | 0.755 | 0.619 | 0.672 | 0.635 | 0.317 | 0.349 | 0.353 | 0.335 | 0.31 | 0.329 | 0.336 | 0.314 | 0.259 | 0.277 | 0.386 | 0.371 | 0.349 | 0.451 | 0.458 |
| NCI-H1915 | 0.448 | 0.403 | 0.376 | 0.373 | 0.328 | 0.918 | 1.05 | 0.824 | 0.839 | 0.803 | 0.522 | 0.545 | 0.449 | 0.457 | 0.315 | 0.252 | 0.264 | 0.277 | 0.243 | 0.255 |
| NCI-H2009 | 0.487 | 0.599 | 0.498 | 0.474 | 0.493 | 0.77 | 1.11 | 0.584 | 0.762 | 0.699 | 0.202 | 0.0934 | 0.162 | 0.155 | 0.161 | 0.378 | 0.42 | 0.402 | 0.371 | 0.415 |
| NCI-H2126 | 0.518 | 0.489 | 0.518 | 0.359 | 0.467 | 0.507 | 0.548 | 0.456 | 0.423 | 0.467 | 0.345 | 0.332 | 0.358 | 0.315 | 0.338 | 0.567 | 0.565 | 0.606 | 0.55 | 0.47 |
